Measurements reported in ChEMBL document CHEMBL1201862, “PubChem BioAssay data set” (2004).
Active and inactive are the calls of the source.

Columns and labels:
Fatty acid synthase [1] = molecular target: T1, Fatty acid synthase (Homo sapiens, UniProt P49327); assay: FAS thioesterase domain inhibitors, dose response, biochemical, kinetic fluorescence intensity (AID 624326); format: functional;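 also: rate of fluorescence rise from hydrolysis of a fluorogenic O-methyl fluorescein ester substrate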
[2] = molecular target: T2, Calpain-2 catalytic subunit (Sus scrofa, UniProt P43367); assay: pig calpain II inhibitor potency, dose response, biochemical, fluorogenic peptide substrate (AID 1420); format: functional
T2 sequence (P43367 whole entry): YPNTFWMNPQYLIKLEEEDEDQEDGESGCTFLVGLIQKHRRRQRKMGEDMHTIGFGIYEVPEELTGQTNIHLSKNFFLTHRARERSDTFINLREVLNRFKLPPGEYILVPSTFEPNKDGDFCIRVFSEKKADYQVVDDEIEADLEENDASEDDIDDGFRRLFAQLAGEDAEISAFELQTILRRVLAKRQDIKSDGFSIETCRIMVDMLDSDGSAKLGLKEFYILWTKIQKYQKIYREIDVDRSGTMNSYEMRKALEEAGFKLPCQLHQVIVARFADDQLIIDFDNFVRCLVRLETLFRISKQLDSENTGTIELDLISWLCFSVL

Fatty acid synthase [3] = molecular target: T1, Fatty acid synthase; assay: FAS thioesterase domain inhibitors, dose response, biochemical, endpoint fluorescence intensity, uHTS hits (AID 624327); format: functional;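 also: fluorescence from hydrolysis of an O-methyl fluorescein acyl ester substrate by the enzyme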
[4] = THP-1 cell cytotoxicity, dose response, cytotoxicity control for Vif-APOBEC3G degradation inhibitor project, THP-1 cells (AID 1117359); format: functional; settings: Human immunodeficiency virus 1, THP-1
[5] = inhibitors of PGC1a acetylation in cells, dose response, cell-based, cherry-picked samples (AID 720514); format: functional;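 also: potency may reflect raised or lowered acetylation signal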
[6] = molecular target: T3, Zinc finger protein mex-5 (Caenorhabditis elegans, UniProt Q9XUB2); assay: MEX-5/TCR-2 RNA interaction inhibitors, dose response, biochemical, C. elegans, fluorescence polarization (AID 1960)
T3 sequence (Q9XUB2 whole entry): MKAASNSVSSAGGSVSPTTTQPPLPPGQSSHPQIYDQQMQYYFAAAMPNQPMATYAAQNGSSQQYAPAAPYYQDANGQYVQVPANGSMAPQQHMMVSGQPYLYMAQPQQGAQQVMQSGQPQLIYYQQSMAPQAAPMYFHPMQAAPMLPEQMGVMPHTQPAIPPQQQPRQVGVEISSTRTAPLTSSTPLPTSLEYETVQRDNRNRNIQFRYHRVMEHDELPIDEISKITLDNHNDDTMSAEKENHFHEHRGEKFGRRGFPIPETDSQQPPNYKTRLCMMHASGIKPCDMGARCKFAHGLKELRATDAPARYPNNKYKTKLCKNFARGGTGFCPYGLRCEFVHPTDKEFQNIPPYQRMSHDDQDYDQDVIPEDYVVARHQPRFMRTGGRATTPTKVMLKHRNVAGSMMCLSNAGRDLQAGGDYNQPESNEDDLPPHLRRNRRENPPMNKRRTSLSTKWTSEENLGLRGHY

[7] = molecular target: T4, DNA repair protein RAD52 homolog (Homo sapiens, UniProt P43351); format: functional, biochemical
T4 sequence (P43351 whole entry): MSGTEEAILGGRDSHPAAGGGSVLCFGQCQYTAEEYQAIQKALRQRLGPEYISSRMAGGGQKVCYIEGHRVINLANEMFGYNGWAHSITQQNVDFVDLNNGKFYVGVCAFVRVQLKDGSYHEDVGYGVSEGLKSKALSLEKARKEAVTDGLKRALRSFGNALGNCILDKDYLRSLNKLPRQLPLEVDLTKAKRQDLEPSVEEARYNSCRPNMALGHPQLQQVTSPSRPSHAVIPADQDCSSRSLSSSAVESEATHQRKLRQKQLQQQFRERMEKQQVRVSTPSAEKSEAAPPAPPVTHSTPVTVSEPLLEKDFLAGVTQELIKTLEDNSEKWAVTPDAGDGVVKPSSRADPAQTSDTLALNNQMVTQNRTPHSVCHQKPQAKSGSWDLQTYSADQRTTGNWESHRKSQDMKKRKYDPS

[8] = molecular target: T5, RNA-binding protein pos-1 (Caenorhabditis elegans, UniProt G5EF15); assay: inhibitors of POS-1/mex-3 RNA binding, dose response, biochemical, fluorescence polarization (AID 1964);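 also: purified POS-1 fused to maltose binding protein made in E. coli; potency of compounds blocking POS-1 binding to fluorescent RNA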
T5 sequence (G5EF15 whole entry): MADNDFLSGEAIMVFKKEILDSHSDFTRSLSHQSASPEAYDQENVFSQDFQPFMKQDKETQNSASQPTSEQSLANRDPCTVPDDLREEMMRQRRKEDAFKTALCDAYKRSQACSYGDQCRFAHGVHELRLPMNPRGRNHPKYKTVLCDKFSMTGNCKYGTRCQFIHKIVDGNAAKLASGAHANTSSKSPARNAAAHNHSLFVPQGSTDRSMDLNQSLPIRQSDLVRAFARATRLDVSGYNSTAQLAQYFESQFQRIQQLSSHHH

[9] = molecular target: T6, DNA repair and recombination protein RAD54-like (Homo sapiens, UniProt Q92698); assay: inhibitors of human RAD54 branch migration, confirmation, biochemical, fluorescence, cherry-picked samples, dose series (AID 651657); format: functional
T6 sequence (Q92698 whole entry): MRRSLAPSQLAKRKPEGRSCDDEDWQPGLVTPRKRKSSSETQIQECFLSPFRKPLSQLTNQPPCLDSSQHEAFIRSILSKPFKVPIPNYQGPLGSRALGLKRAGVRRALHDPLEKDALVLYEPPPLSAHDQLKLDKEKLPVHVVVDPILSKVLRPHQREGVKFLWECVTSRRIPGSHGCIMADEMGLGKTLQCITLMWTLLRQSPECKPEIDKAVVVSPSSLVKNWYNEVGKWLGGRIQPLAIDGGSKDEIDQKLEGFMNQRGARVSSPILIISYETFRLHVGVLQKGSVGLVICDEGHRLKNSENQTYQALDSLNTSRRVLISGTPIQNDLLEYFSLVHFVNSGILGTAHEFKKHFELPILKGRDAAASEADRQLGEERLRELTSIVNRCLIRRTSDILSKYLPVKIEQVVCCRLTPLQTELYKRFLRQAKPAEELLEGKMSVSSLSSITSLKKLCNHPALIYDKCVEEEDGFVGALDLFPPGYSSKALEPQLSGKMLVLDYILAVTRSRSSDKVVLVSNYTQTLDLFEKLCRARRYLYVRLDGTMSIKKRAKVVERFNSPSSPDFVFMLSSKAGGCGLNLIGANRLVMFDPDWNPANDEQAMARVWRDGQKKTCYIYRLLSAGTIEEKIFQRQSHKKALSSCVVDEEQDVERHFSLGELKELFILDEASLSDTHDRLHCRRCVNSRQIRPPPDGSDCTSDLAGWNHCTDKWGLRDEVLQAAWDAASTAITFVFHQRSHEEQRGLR

Paired box protein Pax-8 = Paired box protein Pax-8 (Homo sapiens, UniProt Q06710); assay: inhibitors of PAX8-driven TPO luciferase reporter, dose response, RMG-I cells, cherry-pick (AID 687027); format: functional, cell-based;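 also: luciferase reporter driven by Pax8 target thyroperoxidase promoter measured by SteadyGlo luminescence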
[10] = HepG2 cell cytotoxicity, dose response, cytotoxicity control, plate reader, cherry-pick, antagonist series (AID 743416); format: functional, cell-based
[11] = LGR2 antagonists, dose response, cell-based, HEK293, CRE-luciferase reporter, cherry pick, set 2 (AID 743343); format: functional;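 also: transfected cells were stimulated with diluted bursicon conditioned medium after compound addition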
[12] = A549 cell cytotoxicity, dose response, cytotoxicity control, plate reader, cherry-pick, antagonist series (AID 743412); format: functional, cell-based
[13] = non-specific cell cytotoxicity, dose response, cytotoxicity control for PAX8 inhibitor project, plate reader, dry powder samples (AID 743021); format: functional, cell-based
[14] = HEK293 cell cytotoxicity, dose response, cytotoxicity control, plate reader, cherry-picked samples (AID 743446); format: functional, cell-based
[15] = MC4R antagonists, dose response, counter-screen for LGR2 antagonist project, cell-based, plate reader, cherry pick (AID 743444); format: functional;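 also: transfected HEK 293 cells stimulated with alpha-MSH peptide; potency of inhibitors of the alpha-MSH evoked signal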
[16] = molecular target: T7, Endoribonuclease toxin MazF (Escherichia coli K-12, UniProt P0AE70); assay: fluorescent RNA oligo signal without MazF, dose response, counter-screen for MazEF activator project, biochemical, fluorescence, single-stranded RNase substrate (AID 588502); format: functional
T7 sequence (P0AE70 whole entry): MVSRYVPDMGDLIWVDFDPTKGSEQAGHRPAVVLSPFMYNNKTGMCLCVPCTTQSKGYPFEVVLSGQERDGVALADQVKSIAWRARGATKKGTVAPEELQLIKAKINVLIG

[17] = HEp-2 cell cytotoxicity, dose response, cytotoxicity control for RSV inhibitor project, HTS (AID 2410); format: functional; settings: human respiratory syncytial virus
[18] = molecular target: T7, Endoribonuclease toxin MazF; assay: MazF toxin RNase activators, dose response, biochemical, fluorescence, single-stranded RNA substrate, uHTS hits (AID 588481); format: functional

T1 sequence (P49327 whole entry, the tested form may be a part): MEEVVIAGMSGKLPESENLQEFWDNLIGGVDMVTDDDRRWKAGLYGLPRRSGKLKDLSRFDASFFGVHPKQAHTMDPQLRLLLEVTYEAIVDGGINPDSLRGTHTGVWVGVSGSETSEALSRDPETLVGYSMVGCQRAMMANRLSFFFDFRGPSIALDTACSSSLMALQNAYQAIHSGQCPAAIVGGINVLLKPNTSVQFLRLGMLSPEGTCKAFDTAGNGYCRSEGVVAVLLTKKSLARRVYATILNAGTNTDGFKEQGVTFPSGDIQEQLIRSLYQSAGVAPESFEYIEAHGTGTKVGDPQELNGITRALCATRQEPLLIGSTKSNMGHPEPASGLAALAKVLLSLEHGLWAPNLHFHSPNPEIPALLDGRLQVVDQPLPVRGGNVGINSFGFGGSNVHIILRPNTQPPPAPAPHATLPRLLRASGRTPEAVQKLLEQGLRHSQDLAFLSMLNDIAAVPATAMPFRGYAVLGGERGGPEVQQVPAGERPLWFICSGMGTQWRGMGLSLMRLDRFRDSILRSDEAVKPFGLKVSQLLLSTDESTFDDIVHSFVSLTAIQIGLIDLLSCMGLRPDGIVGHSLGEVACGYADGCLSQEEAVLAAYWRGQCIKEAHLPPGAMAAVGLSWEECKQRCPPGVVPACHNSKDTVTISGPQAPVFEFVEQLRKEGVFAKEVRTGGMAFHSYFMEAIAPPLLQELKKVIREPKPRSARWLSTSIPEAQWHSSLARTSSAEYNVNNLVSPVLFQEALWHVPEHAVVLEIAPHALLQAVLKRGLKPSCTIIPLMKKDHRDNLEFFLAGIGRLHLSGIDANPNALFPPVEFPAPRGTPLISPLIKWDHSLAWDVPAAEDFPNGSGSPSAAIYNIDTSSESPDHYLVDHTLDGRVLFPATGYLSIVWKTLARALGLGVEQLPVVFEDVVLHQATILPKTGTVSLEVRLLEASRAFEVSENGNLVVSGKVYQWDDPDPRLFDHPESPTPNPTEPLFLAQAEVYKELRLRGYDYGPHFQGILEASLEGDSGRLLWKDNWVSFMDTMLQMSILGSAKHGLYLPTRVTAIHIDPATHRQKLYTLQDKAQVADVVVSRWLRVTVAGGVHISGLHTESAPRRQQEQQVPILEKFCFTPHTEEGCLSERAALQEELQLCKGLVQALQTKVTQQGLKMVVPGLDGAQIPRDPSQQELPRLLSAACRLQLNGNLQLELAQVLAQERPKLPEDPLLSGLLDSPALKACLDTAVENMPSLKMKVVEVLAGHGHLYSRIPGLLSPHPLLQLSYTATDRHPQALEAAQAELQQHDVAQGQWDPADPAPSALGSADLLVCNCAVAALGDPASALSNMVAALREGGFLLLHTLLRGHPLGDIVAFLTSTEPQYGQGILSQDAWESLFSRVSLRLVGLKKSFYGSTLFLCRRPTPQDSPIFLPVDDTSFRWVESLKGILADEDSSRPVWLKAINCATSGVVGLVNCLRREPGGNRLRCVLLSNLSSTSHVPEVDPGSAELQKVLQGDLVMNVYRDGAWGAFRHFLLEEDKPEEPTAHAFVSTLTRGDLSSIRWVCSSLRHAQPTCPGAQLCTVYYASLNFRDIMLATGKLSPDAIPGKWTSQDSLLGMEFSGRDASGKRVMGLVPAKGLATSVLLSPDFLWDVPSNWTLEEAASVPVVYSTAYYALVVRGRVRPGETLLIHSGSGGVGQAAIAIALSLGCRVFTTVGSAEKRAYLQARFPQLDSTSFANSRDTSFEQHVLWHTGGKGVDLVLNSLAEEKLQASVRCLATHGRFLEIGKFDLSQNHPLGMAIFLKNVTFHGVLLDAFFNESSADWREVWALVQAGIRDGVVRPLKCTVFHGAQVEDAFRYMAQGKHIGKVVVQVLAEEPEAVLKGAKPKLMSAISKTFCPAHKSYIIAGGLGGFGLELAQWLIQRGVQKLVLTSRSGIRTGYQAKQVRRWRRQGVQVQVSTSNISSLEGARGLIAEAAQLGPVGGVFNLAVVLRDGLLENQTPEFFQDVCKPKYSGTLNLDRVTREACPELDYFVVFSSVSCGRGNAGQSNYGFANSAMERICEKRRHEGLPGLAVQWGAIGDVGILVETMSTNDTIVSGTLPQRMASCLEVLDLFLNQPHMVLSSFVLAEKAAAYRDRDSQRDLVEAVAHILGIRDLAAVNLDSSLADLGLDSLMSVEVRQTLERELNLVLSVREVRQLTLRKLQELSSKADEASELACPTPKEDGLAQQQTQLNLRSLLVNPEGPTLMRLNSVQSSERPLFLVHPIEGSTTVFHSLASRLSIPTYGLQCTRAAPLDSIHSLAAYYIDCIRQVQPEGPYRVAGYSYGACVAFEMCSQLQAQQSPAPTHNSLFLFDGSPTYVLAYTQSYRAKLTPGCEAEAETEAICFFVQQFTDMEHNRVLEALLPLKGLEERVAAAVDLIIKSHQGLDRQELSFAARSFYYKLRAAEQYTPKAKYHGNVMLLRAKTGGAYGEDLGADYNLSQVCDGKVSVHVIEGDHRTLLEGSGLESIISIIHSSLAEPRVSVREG
Paired box protein Pax-8, sequence (Q06710 whole entry): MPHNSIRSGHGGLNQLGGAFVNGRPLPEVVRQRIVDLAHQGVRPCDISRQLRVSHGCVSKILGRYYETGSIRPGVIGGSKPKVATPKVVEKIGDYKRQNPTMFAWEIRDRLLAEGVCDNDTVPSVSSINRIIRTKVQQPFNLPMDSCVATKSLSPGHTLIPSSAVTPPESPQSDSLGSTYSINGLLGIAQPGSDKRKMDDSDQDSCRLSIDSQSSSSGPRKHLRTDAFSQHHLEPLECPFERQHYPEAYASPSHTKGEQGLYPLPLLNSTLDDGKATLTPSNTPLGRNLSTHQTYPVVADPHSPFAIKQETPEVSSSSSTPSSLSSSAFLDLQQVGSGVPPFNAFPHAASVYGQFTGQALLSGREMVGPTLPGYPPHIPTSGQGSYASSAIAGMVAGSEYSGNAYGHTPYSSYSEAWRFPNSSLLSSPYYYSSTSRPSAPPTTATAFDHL

Structure (SMILES): Cc1ccc([N+](=O)[O-])cc1NC(=O)C(Sc1ccccc1)c1ccccc1 (centres undefined)
- IC50 (Fatty acid synthase [1]): 1.73 µM (active)
- IC50 [2]: > 50 µM (not active)
- IC50 (Fatty acid synthase [3]): 2.24 µM (active)

Structure (SMILES): COc1ccc(CCNCc2ccc(OCc3ccccc3)cc2)cc1
- CC50 [4]: 21.9 µM (active)

Structure (SMILES): O=C(N[C@@H]1CC[C@@H](CCNS(=O)(=O)c2ccccc2Cl)O[C@@H]1CO)c1ccc(F)cc1
- AC50 [5]: 36.1 µM (active)

Structure (SMILES): CC(C)OCC(O)CN1CCN(CCN2C(=O)c3cccc4cccc(c34)C2=O)CC1 (centres undefined)
- EC50 [6]: > 300 µM (not active)
- AC50 [7]: 3.93 µM (active)
- EC50 [8]: > 300 µM (not active)
- AC50 [9]: 8.86 µM (active)

Structure (SMILES): Cc1ccc2c(CC(=O)Nc3cccc(S(=O)(=O)N4CCOCC4)c3)coc2c1
- IC50 [2]: 25.9 µM (not active)

Structure (SMILES): Oc1nc2ccccc2n1C1CCN(C(c2cc3ccccc3o2)c2nnnn2Cc2ccccc2)CC1 (centres undefined)
- AC50 (Paired box protein Pax-8): 6.31 µM (active)
- AC50 [10]: 24.8 µM (active)
- AC50 [11]: 13.5 µM (active)
- AC50 [12]: 9.97 µM (active)
- AC50 [5]: 9.76 µM (active)
- AC50 [13]: 19 µM (active)
- AC50 [14]: 14.7 µM (active)
- AC50 [15]: 9.44 µM (active)

Structure (SMILES): Cc1nc(SCC(=O)Nc2ccccc2)c2oc3ccccc3c2n1
- IC50 [2]: > 50 µM (not active)

Structure (SMILES): CN1CCc2c(sc(N)c2C(=O)O)C1
- AC50 [7]: 11.7 µM (active)

Structure (SMILES): O=c1oc(/C=C/c2ccccc2)nc2sc3c(c12)CCC3
- IC50 (cells): 39.6 µM (active)
- EC50 [16]: > 99 µM (inactive)
- CC50 [17]: 28.4 µM (active)
- EC50 [18]: > 99 µM (inactive)
